Several values for one entry are separate records, joined by “and”; a condition that tells them apart may be missing. Identical values can stand only once. Counter-ions that a name gives are not always drawn. Like-named read-outs stand apart in the source and are kept apart here.
Experiments:
[1] = test system: tumor cells resistant to anthracyclines and presenting the mdr phenotype; details: in vitro and in vivo; cited from earlier work
[2] = test system: tumor cells resistant to L-PAM, cisplatin (cDDP), CTX or Topoisomerase II inhibitors; details: cited from earlier work
[3] = test system: disseminated L1210 murine leukemia; test: Antileukemic activity against disseminated L1210 murine leukemia; type: in vivo, CD2F1 mice
[4] = in vivo; cited from earlier work

| Compound | Activity on tumor cells resistant to anthracyclines and presenting the mdr phenotype [1] | Cross-resistance on resistant tumor cells ([2]; tumor cells resistant to CTX, L-Pam and cDDP) | ILS % (Increased in Life Span) ([3]; PNU-152243 alone, 0.05 mg/Kg/day iv, days +1, 2) | Tox (Number of toxic deaths/number of mice) ([3]; PNU-152243 alone, 0.05 mg/Kg/day iv, days +1, 2, HCl, 0.05 mg/kg/day) | Tox (Number of toxic deaths/number of mice) ([3]; PNU-152243 alone, 0.05 mg/Kg/day iv, days +1, 2, listed as PNU 152243, HCl, 0.05 mg/kg/day) | Cross-resistance on resistant tumor cells ([2]; tumor cells resistant to L-PAM or cisplatin (cDDP), or to Topoisomerase II inhibitors (at-multidrug resistant)) | Optimal i.v. dose, fold less than that of doxorubicin [4] | ILS % (Increased in Life Span) ([3]; cDDP alone, 5.9 mg/Kg/day iv, day +3) | Tox (Number of toxic deaths/number of mice) ([3]; cDDP alone, 5.9 mg/Kg/day iv, day +3, 5.9 mg/kg/day) | ILS % (Increased in Life Span) ([3]; cDDP alone, 7.7 mg/Kg/day iv, day +3) | Tox (Number of toxic deaths/number of mice) ([3]; cDDP alone, 7.7 mg/Kg/day iv, day +3, 7.7 mg/kg/day) |
| --- | --- | --- | --- | --- | --- | --- | --- | --- | --- | --- | --- |
| CCC1(O)CC(OC2CC(N3CCOCC3)C(O)C(C)O2)c2c(O)c3c(c(O)c2C1O)C(=O)c1cccc(O)c1C3=O (stereo not drawn) [MX2, 3′-deamino-3′(4-morpholinyl)-13-deoxo-10-hydroxy-carminomycin] | active | No cross-resistance | – | – | – | – | – | – | – | – | – |
| COc1cccc2c1C(=O)c1c(O)c3c(c(O)c1C2=O)C[C@@](O)(C(=O)CO)C[C@@H]3O[C@H]1C[C@H](N2CCO[C@H](OC)C2)[C@H](O)[C@H](C)O1 [PNU-152243, 3′deamino-3′(2-methoxy-4-morpholinyl)doxorubicin. HCl] | active | – | 50% | 0/10 | without toxicity | No cross-resistance | at least 80 fold | – | – | – | – |
| [NH2][Pt]([NH2])([Cl])[Cl] [cDDP, cisplatin] | – | – | – | – | – | – | – | 33% | without toxicity and 0/10 | 33% | without toxicity and 0/10 |

From patent US6537990B1, “Combined preparations comprising morpholine anthracyclines and anticancer agent” (priority 1999, dated 2003)
